Experimental findings from US20110217265A1, “Screening for Inhibitors of HCV Amphipathic Helix (AH) Function” (priority 2008, published 2011) are described below.

SMILES strings stand for the structures.

One data set deals with 2a HCV RNA replicon. As to the kind of experiment: 2a HCV RNA replicon assay (FL-J6/JFH-5'C19Rluc2AUbi, luciferase). To be noted: Hepatitis C virus, read-out: 2a (%) Percent of virus activity remaining in the presence of the compound. The format is cell-based, Hepatitis C Virus genotype 2a. The source says:
Plasmids. Bart79I, a high-efficiency subgenomic replicon of HCV (28), harbors the neomycin resistance gene (neo) and the HCV nonstructural proteins. The Bart-Luciferase plasmid, Bart79I-luc, was cloned from the Bart791 parent (29) and the pGL3-Basic parent (Promega). In brief, a NotI site was introduced after the 15th amino acid of Core in Bart791 using PCR mutagenesis. The plasmid pcDNA3.1-NS4B, which encodes the Con1 NS4B sequence and was used to study the protein stability of the wild type and mutant NS4Bs, was described previously. To introduce the M2 mutation into the 4BAH2 of plasmids encoding HCV replicons or NS4B, the nucleotide sequence GCG that encodes for alanine at NS4B amino acid position 51 was changed to GAG (encoding for glutamate) and the nucleotide sequence TGG that encodes for tryptophan at amino acid position 55 was changed to GAT (encoding for aspartate) through the use of Quick-ChangeTMXL site-directed mutagenesis kit (Stratagene, La Jolla, Calif.) as described by the manufacturer and confirmed by sequencing. FL-J6/JFH-5′C19Rluc2AUbi, which is a monocistronic, full-length HCV genome that expresses Renilla luciferase (Rluc) and was derived from the previously described infectious genotype 2a HCV genome J6/JFH1.
(§1) Antiviral Assays of Compounds. Subconfluent Huh7.5 cells were trypsinized and collected by centrifugation at 700 g for 5 min. The cells were then washed three times in ice-cold RNasefree PBS buffer (BioWhittaker) and resuspended at 1.5×10^7 cells·ml^−1 in PBS buffer. Wild-type FL-J6/JFH-5′C19Rluc2AUbi and Bart79I-luc RNAs for electroporation were generated by in vitro transcription of XbaI (FL-J6/JFH-5′C19Rluc2AUbi) and ScaI (Bart791-luc)-linearized DNA templates using the T7 MEGAscript kit (Ambion), followed by phenol-chloroform purification and DEPC water suspension, 5 μg of RNA were mixed with 400 μl of washed Huh7.5 cells in a 2-mm-gap cuvette (BTX) and immediately pulsed (0.82 kV (FL-J6/JFH-5′C19Rluc2AUbi) and 0.68 kV (Bart79I-luc), five […] pulses) with a BTX-830 electroporator. After 10 min recovery at 25° C., pulsed cells were diluted into 20 ml of pre-warmed growth medium. Cells from several electroporations were pooled to a common stock and seeded in 96-well plates (17,000-20,000 cells per well). After 24 hr, compounds were added to the cells and media changes were performed daily with fresh compounds. After 72 hr of treatment, cells were incubated for 2 hr at 37° C. in the presence of 10% Alamar Blue reagent (TREK Diagnostic Systems) to assess for cytotoxicity. Plates were then scanned and fluorescence was detected by using a FLEXstation II 384 (Molecular Devices). The signal was normalized relative to untreated samples. Viral RNA replication was determined using Renilla (FL-J6/JFH-5′C19Rluc2AUbi) or firefly (Bart791-luc) luciferase assays, according to the manufacturer's (Promega) directions. The same samples subjected to the viability assay described below were analyzed in this assay. According to the manufacturer protocol, cells were washed with PBS buffer and shaken at room temperature for 15 min in 20 μl of lysis buffer. Reporter assays were performed directly in the wells of the culture plates by injecting 100 μl of the assay substrate into each well. Luminescence was measured over 10 seconds with a 2-second delay using a Berthold LB 96 V luminometer. Signal was normalized relative to untreated samples or samples grown in the presence of the corresponding concentration of DMSO. Experiments were repeated three times, each time with 4 replicates.
Background: In antiviral work, replicon cells carry a viral genome segment that copies itself.

For another data set, the system named is Huh7.5 cells. Briefly: Alamar Blue cell viability assay. The format is cell-based, human. Here is the method: as §1, with “Plates were then scanned and fluorescence was detected by using a FLEXstation II 384 (Molecular Devices).” left out
(In general: Resazurin is reduced to fluorescent resorufin, in cell work by metabolically active cells.)

For the molecule `CC(C)CN(C)c1nc(N)c(C(=O)Nc2nncs2)nc1Cl.Cl` [ID 205, 3-amino-6-chloro-5-(isobutyl(methyl)amino)-N-(1,3,4-thiadiazol-2-yl)pyrazine-2-carboxamide hydrochloride], in the data set with 2a HCV RNA replicon, the activity at 5 µM is 42% and the activity at 10 µM worked out at 17%. Moreover, the “Cell Viability (%), alamar blue” value in the data set on Huh7.5 cells (5 μM) came to 88%. For the same molecule, the “Cell Viability (%), alamar blue” value in the data set with Huh7.5 cells (10 μM) was 67%.
On the same counts, the results for `Cc1ccncc1NC(=O)c1nc(Cl)c(N2CCOCC2)nc1N` [ID 419, 3-amino-6-chloro-N-(4-methylpyridin-3-yl)-5-morpholinopyrazine-2-carboxamide 2,2,2-trifluoroacetate] are 75%, 51%, 95% and 77%.
Consider `Cc1cc(F)ncc1NC(=O)c1nc(Cl)c(N(C)CC(C)C)nc1N` [ID 297, 3-amino-6-chloro-N-(6-fluoro-4-methylpyridin-3-yl)-5-(isobutyl(methyl)amino)pyrazine-2-carboxamide bis(2,2,2-trifluoroacetate)], for which, in the data set with 2a HCV RNA replicon, the activity at 5 µM was 58% and the activity at 10 µM was 16%. Also, the “Cell Viability (%), alamar blue” value with Huh7.5 cells (5 μM) came to 94%. Moreover, the “Cell Viability (%), alamar blue” value in the data set on Huh7.5 cells (10 μM) came to 67%.
In the case of `Cc1ccncc1NC(=O)c1nc(Cl)c(N(C)CC(C)C)nc1N.Cl` [ID 235, 3-amino-6-chloro-5-(isobutyl(methyl)amino)-N-(4-methylpyridin-3-yl)pyrazine-2-carboxamide hydrochloride], the activity at 5 µM with 2a HCV RNA replicon came out at 48%. For the same molecule, in the data set on 2a HCV RNA replicon, the activity at 10 µM was determined as 22%. In addition, the “Cell Viability (%), alamar blue” value in the data set with Huh7.5 cells (5 μM) is 84%; with Huh7.5 cells (10 μM) it was 68%.
On the same counts, the results for `Cc1ccncc1NC(=O)c1cnc(N(C)C(C)C)cn1` [ID 459, 5-(isopropyl(methyl)amino)-N-(4-methylpyridin-3-yl)pyrazine-2-carboxamide 2,2,2-trifluoroacetate] are 22%, 11%, 64% and 65%.
On the same counts, the results for `Cc1ccncc1NC(=O)c1nc(Cl)c(N(C)Cc2ccccc2)nc1N` [ID 424, 3-amino-5-(benzyl(methyl)amino)-6-chloro-N-(4-methylpyridin-3-yl)pyrazine-2-carboxamide 2,2,2-trifluoroacetate] are 70%, 39%, 98% and 78%.
On the same counts, the results for `CC(C)CN(C)c1nc(N)c(C(=O)Nc2ccccn2)nc1Cl.Cl` [ID 201, 3-amino-6-chloro-5-(isobutyl(methyl)amino)-N-(pyridin-2-yl)pyrazine-2-carboxamide hydrochloride] are 74%, 48%, greater than 100% and 92%.
As for `Cc1ccncc1NC(=O)c1cnc(N(C)CC(C)C)c(Cl)n1` [ID 473, 6-chloro-5-(isobutyl(methyl)amino)-N-(4-methylpyridin-3-yl)pyrazine-2-carboxamide 2,2,2-trifluoroacetate], in the data set on 2a HCV RNA replicon, the activity at 5 µM amounted to 87% and the activity at 10 µM is 73%. Besides, the “Cell Viability (%), alamar blue” value with Huh7.5 cells (5 μM) is 94%. Moreover, the “Cell Viability (%), alamar blue” value with Huh7.5 cells (10 μM) stood at 95%.
Turning to `CC(C)CN(C)c1nc(N)c(C(=O)NCc2ccccn2)nc1Cl.Cl` [ID 204, 3-amino-6-chloro-5-(isobutyl(methyl)amino)-N-(pyridin-2-ylmethyl)pyrazine-2-carboxamide hydrochloride], in the data set with 2a HCV RNA replicon, the activity at 5 µM was 66% and the activity at 10 µM was 60%. For the same molecule, the “Cell Viability (%), alamar blue” value with Huh7.5 cells (5 μM) is greater than 100%. Besides, the “Cell Viability (%), alamar blue” value in the data set on Huh7.5 cells (10 μM) is given as 99%.
On to `Cc1cc(NC(=O)c2nc(Cl)c(N(C)CC(C)C)nc2N)cnc1Cl` [ID 291, 3-amino-6-chloro-N-(6-chloro-5-methylpyridin-3-yl)-5-(isobutyl(methyl)amino)pyrazine-2-carboxamide bis(2,2,2-trifluoroacetate)], for which the activity at 5 µM in the data set with 2a HCV RNA replicon was 59%. For the same molecule, the activity at 10 µM with 2a HCV RNA replicon was found to be 21%. Moreover, the “Cell Viability (%), alamar blue” value in the data set with Huh7.5 cells (5 μM) is listed as 79%; with Huh7.5 cells (10 μM) it was 53%.
`CC(C)CN(C)c1nc(N)c(C(=O)NCc2ccsc2)nc1Cl.Cl` [ID 148, 3-amino-6-chloro-5-(isobutyl(methyl)amino)-N-(thiophen-3-ylmethyl)pyrazine-2-carboxamide hydrochloride]: in the data set with 2a HCV RNA replicon, the activity at 5 µM was 69% and the activity at 10 µM is 53%. Also, the “Cell Viability (%), alamar blue” value in the data set on Huh7.5 cells (5 μM) was determined as 99%. In addition, the “Cell Viability (%), alamar blue” value in the data set with Huh7.5 cells (10 μM) stood at 90%.
On the same counts, the results for `Cc1cncc(NC(=O)c2nc(Cl)c(N(C)CC(C)C)nc2N)c1` [ID 296, 3-amino-6-chloro-5-(isobutyl(methyl)amino)-N-(5-methylpyridin-3-yl)pyrazine-2-carboxamide bis(2,2,2-trifluoroacetate)] are 52%, 18%, 100% and 76%.
Turning to `CC(C)CN(C)c1nc(N)c(C(=O)Nc2ccon2)nc1Cl.Cl` [ID 200, 3-amino-6-chloro-5-(isobutyl(methyl)amino)-N-(isoxazol-3-yl)pyrazine-2-carboxamide hydrochloride], in the data set on 2a HCV RNA replicon, the activity at 5 µM was 77% and the activity at 10 µM came to 65%. In addition, the “Cell Viability (%), alamar blue” value in the data set on Huh7.5 cells (5 μM) is 96%. In the data set with Huh7.5 cells (10 μM), the “Cell Viability (%), alamar blue” value was 96%.
On to `Cc1ccncc1NC(=O)c1cnc(N(C)CC(C)C)cn1` [ID 414, 5-(isobutyl(methyl)amino)-N-(4-methylpyridin-3-yl)pyrazine-2-carboxamide 2,2,2-trifluoroacetate], for which, in the data set with 2a HCV RNA replicon, the activity at 5 µM came to 60% and the activity at 10 µM was determined as 53%. Besides, in the data set with Huh7.5 cells (5 μM), the “Cell Viability (%), alamar blue” value amounted to 100%. The “Cell Viability (%), alamar blue” value with Huh7.5 cells (10 μM) came to 90%.
